This note sets out measurements from US6989375B2, “Enhanced expression of transgenes” (priority 1996, dated 2006).

Test [1] deals with p53 protein in H1299 cells. In words: p53 immunocytochemical staining. The test is classed as cell-based, human. As to conditions: 24 hrs after p53 gene transfer (MOI=5); prior CDDP exposure. As to the method: The infected cells were fixed 3.8% formalin at 12 and 24 hrs after transfection with Adv/CMV/p53 (MOI=5) with or without prior CDDP exposure and treated with 3% H2O2 in methanol for 5 minutes. The Vectastain kit (Vector Laboratories, Burlingana, Calif.) was used for the immunocytochemical staining. The primary antibody used was the mouse monoclonal anti-p53 antibody Pab 1801 (Oncogene Science, Manhasset, N.Y.). The secondary antibody was the biotinylated anti-mouse IgG antibody (Vector Laboratories). The avidin-biotin-peroxidase complex (ABC) kit was used to detect the antigen-antibody complex. The cells were counterstained with Harris Hematoxylin (Sigma, St. Louis, Mo.) and mounted with cover slips using Cytoseal 60.

The test system of test [2] is H1299 cells. Briefly: Cell growth after 24-hour incubation with CDDP. The format is cell-based, human.
Test [3] deals with H1299 cells. Briefly: Cell proliferation assay (daily cell counts). The format is cell-based, human. As to conditions: for Increased inhibition of tumor proliferation compared to cells transfected with Adv/CMV/p53 only: CDDP 48 hrs prior to Adv/CMV/p53 (MOI 5). As to the method:
H1299 cells were exposed to CDDP (0.062 μg/ml of medium) for 24 hrs. Cells were then washed twice with PBS, trypsinized and seeded in 6-well plates (10^5 cells/well). Forty eight hours later, cells were infected with Ad/CMV/p53 at the multiplicity of infection (MOI) of 5. Daily cell counts were performed for 5 days following transfection to study the tumor suppression effect of the combination of sequential CDDP and adenovirus-mediated p53 gene transfer. Controls consisted of untreated cells or cells exposed to CDDP only, cells transfected with Ad/CMV/p53 only and cells transfected with d1312 (similar MOI) with or without prior CDDP treatment.

In test [4] the test system is H1299 cells. In words: In situ TUNEL assay for apoptosis. The test is classed as cell-based, human. As to conditions: CDDP = prior CDDP treatment, Ad/CMV/p53 = not exposed to CDDP. As to the method:
CDDP-treated or control H1299 cells were fixed in 50% acetone/ethanol for 20 minutes at −20° C. 12 hrs and 24 hrs after transfection with Adv/CMV/p53 (MOI=5). In situ TdT (terminal deoxynucleotidyl transferase)-mediated dUTP-biotin nick end-labeling (TUNEL) assay was performed according to the procedure described elsewhere (Gavrieli et al., 1992). H1299 cells used as positive controls were treated with DNAse I (Gibco BRL, Gaithersburg, Md.), for 1 hr at 37° C. (50 μg/ml in 10 mM Tris-HCI pH=7.5; 140 mM sodium cacodylate, 4 mM MgCl2, 10 mM dithiothreitol).

For test [5], the system named is subcutaneous H1299 tumors. In words: In vivo CDDP-induced enhancement of β-gal gene expression in subcutaneous tumors. Further details: species or system nude mice. As to the method:
Subcutaneous (SC) tumor nodules were created by injecting 1×10^7 H1299 cells suspended in 100 μl of PBS into the dorsal flank SC tissue of nude mice (nu/nu, Charles River, Wilmington, Mass.) that had received 350 Rads of total body irradiation. Tumors, approximately 250 mm^3 in size, consistently formed within 3 to 4 weeks of tumor cell implantation. Intratumoral injections of Ad/CMV/β-gal (5×10^8 viral particles) were done at 0, 2, 4, and 6 days following an intraperitoneal injection of CDDP (5 μg/g body weight in 100 μl of PBS) or PBS only (n=4 per groups). The tumors were excised 48 hours after adenovirus injection, washed in cold PBS, embedded in tissue freezing medium (Fisher Scientific, Houston, Tex.) and snap-frozen by immersion in 2-methylbutane which was chilled over liquid nitrogen. Serial frozen sections (8μ, thick) of the tumor mass obtained at 2-mm intervals were fixed and stained with X-gal as previously described (Ponder et al., 1991) and then counterstained with nuclear fast red (PolyScientific, Bay Shore, N.Y.). Quantitative assessment of β-gal gene expression (blue cells) was determined by digital image analysis (Samba 4000, Immuno Software, Version 3.0; Image Products International, Inc., Chantilly, Va.) for each tumor section. In vivo β-gal gene transduction of tumor masses was calculated as the mean of the percentage of blue cells per surface area of representative sections. Tumor-bearing animals receiving intraperitoneal injection of PBS and subsequent intratumoral injection of Ad/CMV/β-gal at identical time points, served as controls. The magnitude of enhancement was calculated by dividing values from CDDP and Ad/CMV/β-gal treated tumors by values from Ad/CMV/β-gal control treated tumors.

Test [6] concerns H1299 cells. In words: Quantitation of β-gal gene expression by ONPG assay at increasing MOI. As to conditions: for Enhancement index: CDDP 0.062 μg/ml×24 h; for β-gal activity (ONPG): CDDP = cells treated 0.062 μg/ml×24 h, infected 2 days later, Ad/CMV/β-gal = control cells without CDDP. The format is cell-based, human. As to the method:
(§1) Quantitation of β-gal Gene Expression: Adenoviral infection was performed 2 days after exposure to CDDP (0.062 μg/ml×24 hours), with cell extracts being obtained 24 hours later and quantitatively assayed for the expression of the β-galactosidase gene using O-nitrophenyl β-d-galactoside (ONPG) as a substrate (MacGregor et al., 1987). The magnitude of CDDP-induced enhancement of gene expression at a given MOI was determined by calculating the enhancement index: [formula] In Vivo CDDP-Induced Enhancement of β-gal Gene Expression
(§2) To determine if prior incubation of target cells with CDDP would result in an increase in the ability of cells to take up gene-delivering vectors or an increase in the expression of successfully delivered genes, β-gal gene expression was quantitated in H1299 and H460 cell lines treated with CDDP and then infected with Ad/CMV/β-gal at increasing MOI's. If CDDP mediates an enhancement of adenovirus uptake as compared to non-treated controls, then there should be a proportional increase in enhancement indices with increasing MOI's. […] Similarly, β-gal gene expression in CDDP-treated H460 cells increased from 0.28±0.06 to 12.2±2.1 U/mg protein, as compared to β-gal gene expression in control H460 cells of 0.056±0.016 to 7.6±1.8 U/mg protein. The enhancement indices in H460 cells, therefore, decreased from a value of 5 at an MOI of 5, to a value of 1.6 at an MOI of 100 (FIG. 2B). This observation implies that CDDP induces an increase in the expression of successfully delivered genes and not an increase in adenovirus uptake.

A further test deals with H460 cells. The description is as above. The test is classed as cell-based, human. As to conditions: for β-gal gene expression (ONPG): CDDP = treated cells, Ad/CMV/β-gal = control cells without CDDP. As to the method: as §1, §2

With `N.N.[Cl][Pt][Cl]` [CDDP, cis-dichlorodimminocisplatin], in test [1], the p53 immunocytochemical staining result is on record as “almost all of the CDDP-treated cells stained positive”. The “Cell growth, initial response” value in the test with H1299 cells [2] (CDDP at 1 and 4 μg/ml for 24 hours, cells viable by trypan blue exclusion) is recorded as “significant depression of growth to complete inhibition of proliferation”. Also, the “Cell growth compared to control cell populations” value in the test with H1299 cells [2] (CDDP concentrations lower than 0.25 μg/ml) is “remained unchanged”. Also, in the test on H1299 cells [3] (CDDP 0.0625 μg/ml for 24 hrs, alone), the “Effect on cell growth in vitro” value is on record as “no effect on cell growth”. Besides, the “Increased inhibition of tumor proliferation compared to cells transfected with Adv/CMV/p53 only” value with H1299 cells [3] (day 3 after p53 transfer) was 61%; with H1299 cells [3] (day 5 after p53 transfer), 55%. The “Apoptosis (TUNEL-positive cells)” value is “much higher frequency than in untreated cells” with H1299 cells [4] (12 hrs after Ad/CMV/p53 transfection (MOI=5)) and “almost all CDDP-treated cells stained positive for DNA fragmentation” in the test with H1299 cells [4] (24 hrs after Ad/CMV/p53 transfection (MOI=5)). Also, the “Percentage of positively stained cells in tumors” value in test [5] (Ad/CMV/β-gal injected 2 days after CDDP 5 μg/g ip (CDDP) or PBS (Ad/CMV/β-gal control)) is on record as 46.0±4.3%; in test [5] (Ad/CMV/β-gal injected 4 days after CDDP 5 μg/g ip (CDDP) or PBS (Ad/CMV/β-gal control)), 70.2±11%; in test [5] (Ad/CMV/β-gal injected 6 days after CDDP 5 μg/g ip (CDDP) or PBS (Ad/CMV/β-gal control)) it was 23.4±5%. In test [5] (CDDP 5 μg/g ip and Ad/CMV/β-gal concurrently administered (day 0)), the “Change in β-gal gene expression” value was “no change”. Further, the entries for the “Fold increase of positively stained cells over respective control” value in test [5] (gene transfer 2 days after CDDP administration) and in test [5] (gene transfer 4 days after CDDP administration) were 1.6 fold and 2.8 fold, respectively. Also, the Enhancement index stood at 3 with H1299 cells [6] (MOI 5), 2.5 in the test on H1299 cells [6] (MOI 100), 5 with H460 cells (MOI of 5) and 1.6 in the test with H460 cells (MOI of 100). The “β-gal activity (ONPG)” value came out at 2.2±0.40 U/mg protein in the test on H1299 cells [6] (MOI 5) and 42.0±2.6 U/mg protein in the test with H1299 cells [6] (MOI 100). The figures for the “β-gal gene expression (ONPG)” value in the test on H460 cells (MOI 5) and with H460 cells (MOI 100) were 0.28±0.06 U/mg protein and 12.2±2.1 U/mg protein, respectively.
